Experiments:
[1] = amino acid side-chain; defined by W. D. Stein 1967; cited from earlier work
male C57BL mice [2] = assay: In vivo stimulation of intestinal growth, 800 nmol/kg (Example 10); set-up: key to Small intestine-colon sensitivity index: (SI/Colon) of compound divided by (SI/Colon) of reference GLP-2; settings: 800 nmol/kg s.c. once daily for 3 days; for Colon: colon mass relative to BW, % vs. [Gly2]GLP-2; for SI (% vs. [Gly2]GLP-2: small intestine mass relative to BW, [Gly2]GLP-2 = 100%
Text: Individual groups (n=6-10) of mice were given 800 nmol/kg of each compound, s.c, once daily for three consecutive days. For comparison purposes other groups of animals were given either an equimolar dose of [[…]]GLP-2 (ZP1559) or vehicle (phosphate buffered saline, pH 7.4) in the same dosing regimen Twenty-four hours after the last dose of compound had been given the mice were sacrificed and the small intestine (from the pylorus to the cecum) and the colon (intestine distal to cecum) was emptied and weighed. To correct for slight difference in body weight (BW), the organ mass of the small intestine (SI) and colon were expressed relative to BW. The non-selective reference compound [[…]]GLP-2 has been reported to stimulate gastrointestinal growth in both esophagus, stomach, small intestine and colon and to evaluate differences in growth pattern induced by compounds, the small intestine-colon sensitivity index of compound X was calculated as: […]

male C57BL mice [3] = assay: In vivo stimulation of intestinal growth, 200 nmol/kg (Example 11); settings: for Sensitivity index Si/Colon: relative to 1559
Procedure: The ability of further compounds to selectively stimulate small intestinal mass, relative to colon mass was determined in male C57BL mice. A similar protocol was used to that described above in Example 10 except that 200 nmol/kg of each compound was administered per day. Thus, individual groups (n=6-10) of mice were given 200 nmol/kg of each compound, s.c, once daily for three consecutive days. Other groups of animals were given either an equimolar dose of [[…]]GLP-2 (reference compound) or vehicle (phosphate buffered saline, pH 7.4; negative controls) in the same dosing regimen. Twenty-four hours after the last dose of compound the mice were sacrificed and the stomach, small intestine and the colon emptied and weighed.

male C57BL mice [4] = assay: In vivo stimulation of stomach growth, 200 nmol/kg (Example 12)
Procedure: The effects of the test compounds according to the invention were determined based on the ability of the peptides to selectively increase stomach mass, relative to vehicle control. The ability of the present compounds (ZP2395, ZP2396, ZP2400, ZP2412, ZP2394 and ZP2401) to selectively stimulate stomach mass, relative to colon mass was determined in male C57BL mice. Individual groups (n=6-10) of mice were given 200 nmol/kg of each compound, s.c, once daily for three consecutive days. For comparison purposes other groups of animals were given either an equimolar dose of [[…]]GLP-2 or vehicle (phosphate buffered saline, pH 7.4) in the same dosing regimen. Twenty-four hours after the last dose of compound had been given the mice were sacrificed and the stomach and small intestine (from the pylorus to the ileocaecal junction) emptied and weighed. To correct for slight difference in body weight (BW), the organ mass of the stomach is presented relative to BW. […] To evaluate the differential growth pattern induced by ZP compounds, compared to [[…]]GLP-2, on the stomach, the stomach-colon sensitivity index of compound X was calculated as: (Stomach/Colon)x/Stomach/(Colon)[[…]]GLP-2% Compounds with a stomach/colon sensitivity greater than or equal to 1.05 were considered relatively selective for the stomach.

[5] = 200 nmol/kg s.c. once daily for 3 days
[6] = 200 nmol/kg s.c. once daily for 3 days, relative to 1559

For `C[C@@H](O)[C@H](N)C(=O)O` [Thr], the “HBP for the individual amino acids” value [1] is given as 2.

In the case of `N[C@@H](Cc1c[nH]c2ccccc12)C(=O)O` [Trp], the “HBP for the individual amino acids” value [1] is given as 1.

In the case of `N[C@@H](Cc1ccc(O)cc1)C(=O)O` [Tyr], the “HBP for the individual amino acids” value [1] is listed as 2.

For `NCCCC[C@H](N)C(=O)O` [Lys], the “HBP for the individual amino acids” value [1] is given as 2.

In the case of `NC(=O)C[C@H](N)C(=O)O` [Asn], the “HBP for the individual amino acids” value [1] is given as 3.

For `CC(C)C[C@H](N)C(=O)O` [Leu], the “HBP for the individual amino acids” value [1] is given as 0.

For `N[C@@H](CO)C(=O)O` [Ser], the “HBP for the individual amino acids” value [1] is listed as 2.

In the case of `N=C(N)NCCC[C@H](N)C(=O)O` [Arg], the “HBP for the individual amino acids” value [1] is given as 3.

In the case of `N[C@@H](Cc1c[nH]cn1)C(=O)O` [His], the “HBP for the individual amino acids” value [1] is listed as 1.

In the case of “H-[Gly2]hGLP-2-OH (H-HGDGSFSDEMNTILDNLAARDFINWLIQTKITD-OH) [[Gly2]GLP-2, GLP-2 with alanine in position 2 replaced with glycine, reference compound]”, the “Small intestine-colon sensitivity index” value (male C57BL mice [2]; (SI/Colon)x/(SI/Colon)[Gly2]GLP-2) is reported as 1.00 ± 0.02, the Colon (male C57BL mice [2]) is reported as 100 ± 2% and the “SI (% vs. [Gly2]GLP-2” value (male C57BL mice [2]) is reported as 100 ± 1%.

In the case of `C[C@H](N)C(=O)O` [Ala], the “HBP for the individual amino acids” value [1] is given as 0.

For `N[C@@H](CC(=O)O)C(=O)O` [Asp], the “HBP for the individual amino acids” value [1] is given as 3.

In the case of `NCC(=O)O` [Gly], the “HBP for the individual amino acids” value [1] is given as 0.

In the case of `N[C@@H](CS)C(=O)O` [Cys], the “HBP for the individual amino acids” value [1] is listed as 0.

For `N[C@@H](CCC(=O)O)C(=O)O` [Glu], the “HBP for the individual amino acids” value [1] is given as 3.

In the case of `CSCC[C@H](N)C(=O)O` [Met], the “HBP for the individual amino acids” value [1] is given as 0.

In the case of `CC(C)[C@H](N)C(=O)O` [Val], the “HBP for the individual amino acids” value [1] is given as 0.

With “H-HGEGSFSSELSTILDALAARDFIAWLIATKITDK-OH [ZP2242]” the “Colon-BW, compared to 1559 in %” value (male C57BL mice [2]) was 106.6%, the “Preferential stimulation of epithelial growth in the small intestine (summary)” value (male C57BL mice [2]) was “preferentially stimulating epithelial growth in the small intestine” and the “SI-BW, compared to 1559 in %” value (male C57BL mice [2]) was 111.7%. The “Sto-BW, compared to 1559 in %” value (male C57BL mice [2]) was 99.6%, the “Sensitivity index Si/Colon” value (male C57BL mice [2]; relative to 1559) was 1.05 and the “Sensitivity index Stomach/Co” value (male C57BL mice [2]; relative to 1559) was 0.93. For the same molecule, the Colon (male C57BL mice [2]) was 107 ± 3%, the “SI (% vs. [Gly2]GLP-2” value (male C57BL mice [2]) was 111 ± 2% and the “Colon-BW, compared to 1559 in %” value (male C57BL mice [3]; colon weight relative to body weight, relative to ZP1559) was 106.6%. The “Sensitivity index Si/Co” value (male C57BL mice [3]; ratio SI-BW / Colon-BW) was 1.05, the “SI-BW, compared to 1559 in %” value (male C57BL mice [3]; small intestine weight relative to body weight, relative to ZP1559) was 111.7% and the “Sensitivity index Stomach/Co” value (male C57BL mice [4]; ratio Stomach-BW / Colon-BW) was 0.93. For the same molecule, the “Stomach-BW, compared to 1559 in %” value (male C57BL mice [4]; stomach weight relative to body weight, relative to ZP1559) was 99.6%.

With “H-HGEGSFSDELSTILEALAAADFIAWLIATKITDKKKKKK-NH2 [ZP2404]” the “Colon-BW, compared to 1559 in %” value (male C57BL mice [3]; [5]) was 115%, the “Organ selectivity (FIG. 8, unselective compounds)” value (shortened to “Organ selectivity”) (male C57BL mice [3]; [5]) was “unselective for the small intestine, colon or stomach” and the “SI-BW, compared to 1559 in %” value (male C57BL mice [3]; [5]) was 114%. The “Sensitivity index Si/Colon” value (male C57BL mice [3]; [5]) was 0.99, the “Sto-BW, compared to 1559 in %” value (male C57BL mice [4]; [5]) was 103% and the “Sensitivity index Stomach/Co” value (male C57BL mice [4]; [6]) was 0.90.

For “H-HGEGSFSDELATILESLAASDFISWLISTKITDKKKKKK-NH2 [ZP2386]”, the “Colon-BW, compared to 1559 in %” value (male C57BL mice [3]; [5]) was 111%, the “Organ selectivity” value (male C57BL mice [3]; [5]) was “unselective for the small intestine, colon or stomach” and the “SI-BW, compared to 1559 in %” value (male C57BL mice [3]; [5]) was 113%. For the same molecule, the “Sensitivity index Si/Colon” value (male C57BL mice [3]; [5]) was 1.02, the “Sto-BW, compared to 1559 in %” value (male C57BL mice [4]; [5]) was 95% and the “Sensitivity index Stomach/Co” value (male C57BL mice [4]; [6]) was 0.86.

For “H-HGEGSFSDELATILESLAAADFIAWLIATKITD-NH2 [ZP2414]”, the “Colon-BW, compared to 1559 in %” value (male C57BL mice [3]; [5]) was 106%, the “Organ selectivity” value (male C57BL mice [3]; [5]) was “unselective for the small intestine, colon or stomach” and the “SI-BW, compared to 1559 in %” value (male C57BL mice [3]; [5]) was 105%. For the same molecule, the “Sensitivity index Si/Colon” value (male C57BL mice [3]; [5]) was 0.99, the “Selectivity for stomach mass relative to colon mass (FIG. 7)” value (male C57BL mice [4]; [5]) was “selectively increase stomach mass, relative to colon mass” and the “Sto-BW, compared to 1559 in %” value (male C57BL mice [4]; [5]) was 110%. For the same molecule, the “Sensitivity index Stomach/Co” value (male C57BL mice [4]; [6]) was 1.04.
